Where no end group is shown, it is not given here.

Assay [1] concerns H2A-H2B^30-130 bearing H2B Y45A. The experiment in a line: ITC binding to H2A-H2B^30-130 bearing H2B Y45A. Further details: species or system Saccharomyces cerevisiae.
For assay [2], the system named is H2A-H2B^30-130 bearing H2B M62A. The experiment in a line: ITC binding to H2A-H2B^30-130 bearing H2B M62A. Further details: species or system Saccharomyces cerevisiae.
The next assay concerns the target full-length H2A-H2B (Saccharomyces cerevisiae, UniProt P02293+P04911). Briefly: ITC binding to full-length H2A-H2B.
In another assay the test system is H2A-H2B^30-130 H2B M62E. The experiment in a line: ITC binding to H2A-H2B^30-130 bearing H2B M62E. Further details: species or system Saccharomyces cerevisiae.
The next assay has as its system H2A R78A H2A-H2B^30-130. The experiment in a line: ITC binding to H2A-H2B^30-130 bearing H2A R78A. On the set-up: species or system Saccharomyces cerevisiae.
The subject of a further assay is H2A R78E H2A-H2B^30-130. The experiment in a line: ITC binding to H2A-H2B^30-130 bearing H2A R78E. Further details: species or system Saccharomyces cerevisiae.
Assay [3] relates to H2A-H2B M62E. The experiment in a line: ITC binding of full-length FACT to H2A-H2B M62E. On the set-up: species or system Saccharomyces cerevisiae.
For assay [4], the system named is H2A-H2B M62E. Briefly: EMSA binding of full-length FACT to H2A-H2B M62E. Further details: species or system Saccharomyces cerevisiae. The conditions noted are these: not shown.
Another assay concerns H2A.Z-H2B. The experiment in a line: EMSA of full-length FACT with H2A.Z-H2B. In kind it is binding, Saccharomyces cerevisiae.

Chain of full-length H2A-H2B (P04911 2-132 limits assumed): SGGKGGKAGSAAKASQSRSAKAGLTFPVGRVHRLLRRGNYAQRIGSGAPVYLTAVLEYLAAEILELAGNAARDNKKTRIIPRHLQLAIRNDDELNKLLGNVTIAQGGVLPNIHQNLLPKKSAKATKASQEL
Chain of full-length H2A-H2B (P02293 2-131 limits assumed): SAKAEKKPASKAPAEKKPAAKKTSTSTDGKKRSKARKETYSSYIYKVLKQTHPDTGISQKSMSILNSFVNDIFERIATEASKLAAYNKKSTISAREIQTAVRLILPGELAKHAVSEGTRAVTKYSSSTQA

Consider “DESVDEDFQVSSDNDADEVAEEFDS [Pob3^505-529]”, for which the “reduction in binding (fold) with H2B Y45A relative to wild-type histones” value in assay [1] is on record as 12 fold. The “reduction in binding (fold) with H2B M62A relative to wild-type histones” value in assay [2] turned out to be 9 fold.

Pob3: Pob3 subunit of FACT: the Kd with full-length H2A-H2B (read-out: dissociation constant (KD) for H2A-H2B, 25 °C, 25 mM Na-K phosphate pH 7.4, 200 mM NaCl, at least triplicate) is roughly 1000 nM.

Take “Spt16-C^958-999: Spt16 residues 958-999 (DDEASDESEEEVSEYEASEDDVSDESAFSEDEEGSEVDDDIS)”: the “binding to H2A-H2B (in words)” value with full-length H2A-H2B (25 °C, pH 7.4, 200 mM NaCl) is listed as “recapitulates the full H2A-H2B binding activity of Spt16”.

For the substance “Spt16^958-990: Spt16 peptide of residues 958-990 used for crystal structure and histone mutant binding (DDEASDESEEEVSEYEASEDDVSDESAFSEDEE)”, the “binding to H2B M62E histone mutant (in words)” value in the assay with H2A-H2B^30-130 H2B M62E is listed as “reduced binding to undetectable levels”. In addition, the “binding to H2A R78A histone mutant (in words)” value in the assay with H2A R78A H2A-H2B^30-130 is given as “little effect on binding”. The “binding to H2A R78E histone mutant (in words)” value in the assay on H2A R78E H2A-H2B^30-130 is “affinity was completely lost”.

On to “full-length FACT: full-length S. cerevisiae Spt16-Pob3 heterodimer”, for which, in the assay with full-length H2A-H2B (25 °C, pH 7.4, 200 mM NaCl), the “stoichiometry of binding to H2A-H2B” value is reported as “one full-length Spt16-Pob3 heterodimer bound two H2A-H2B dimers”. In addition, in the assay with H2A-H2B M62E [3], the “binding of full-length FACT to H2A-H2B M62E by ITC (in words)” value is “severe reduction in the binding”. Further, in the assay with H2A-H2B M62E [4], the “binding of full-length FACT to H2A-H2B M62E by EMSA (in words)” value was “diminished binding”. For the same substance, the “discrimination between H2A.Z-H2B and H2A-H2B by EMSA (in words)” value in the assay with H2A.Z-H2B was “does not differentiate between H2A.Z-H2B and H2A-H2B”.

The Kd is a measure of binding affinity in units of concentration.

(Values after publication PMC4620744 (Molecular cell, 2015).)
